This note sets out measurements from PubChem BioAssay AID1259407 (Chemical Carcinogenesis Research Information System (CCRIS), 2018).

Structures are written as SMILES. Active and inactive are the calls of the source. No rule for the calls is given here.

In the series the test system is CCRIS mutagenicity, Ames/micronucleus/aberration tests. The series can be described thus: CCRIS mutagenicity studies.
Where [1] appears, read: Test System: AMES SALMONELLA TYPHIMURIUM, Strain/Indicator: TA98, Metabolic Activation: RAT, LIVER, S-9, AROCLOR 1254, Method: STANDARD PLATE.
The mark [2] stands for this setting: Test System: AMES SALMONELLA TYPHIMURIUM, Strain/Indicator: TA98, Metabolic Activation: NONE, Method: PREINCUBATION
Where [3] appears, read: Test System: AMES SALMONELLA TYPHIMURIUM, Strain/Indicator: TA100, Metabolic Activation: NONE, Method: STANDARD PLATE.
Where [4] appears, read: Test System: AMES SALMONELLA TYPHIMURIUM, Strain/Indicator: TA100, Metabolic Activation: RAT, LIVER, S-9, AROCLOR 1254, Method: STANDARD PLATE.
The mark [5] stands for this setting: Test System: AMES SALMONELLA TYPHIMURIUM, Strain/Indicator: TA1537, Metabolic Activation: NONE, Method: STANDARD PLATE.
[6] abbreviates: Test System: AMES SALMONELLA TYPHIMURIUM, Strain/Indicator: TA98, Metabolic Activation: NONE, Method: STANDARD PLATE.
The mark [7] stands for this setting: Test System: AMES SALMONELLA TYPHIMURIUM, Strain/Indicator: TA102, Metabolic Activation: NONE, Method: STANDARD PLATE.
[8] abbreviates: Test System: AMES SALMONELLA TYPHIMURIUM, Strain/Indicator: TA1535, Metabolic Activation: NONE, Method: STANDARD PLATE.
Where [9] appears, read: Test System: AMES SALMONELLA TYPHIMURIUM, Strain/Indicator: TA1535, Metabolic Activation: RAT, LIVER, S-9, AROCLOR 1254, Method: STANDARD PLATE.
Setting [10] is: Test System: AMES SALMONELLA TYPHIMURIUM, Strain/Indicator: TA1537, Metabolic Activation: RAT, LIVER, S-9, AROCLOR 1254, Method: STANDARD PLATE.
The mark [11] stands for this setting: Test System: AMES SALMONELLA TYPHIMURIUM, Strain/Indicator: TA1538, Metabolic Activation: NONE, Method: STANDARD PLATE.
[12] abbreviates: Test System: AMES SALMONELLA TYPHIMURIUM, Strain/Indicator: TA1538, Metabolic Activation: RAT, LIVER, S-9, AROCLOR 1254, Method: STANDARD PLATE.

For the compound `Cc1nc2c(ccc3ccc4ccc(O)cc4c32)[nH]1`, the mutagenic call is, setting by setting: under setting [1], “active; positive”; (Test System: AMES SALMONELLA TYPHIMURIUM, Strain/Indicator: TA98, Metabolic Activation: RAT, LIVER, S-9, AROCLOR, Method: STANDARD PLATE) “active; positive”.

In the case of `c1ccc2c(c1)-c1ccc3ccccc3c1C1OC21` (stereo not given), the mutagenic call is “active; positive” under setting [2]; “active; positive” (Test System: AMES SALMONELLA TYPHIMURIUM, Strain/Indicator: TA98, Metabolic Activation: NONE, Method: PREINCUBATION (KCL-CONTAINING MEDIUM)); “active; positive” (Test System: AMES SALMONELLA TYPHIMURIUM, Strain/Indicator: TA98, Metabolic Activation: NONE, Method: PREINCUBATION (KCL-FREE MEDIUM)); “active; positive” (Test System: AMES SALMONELLA TYPHIMURIUM, Strain/Indicator: TA100, Metabolic Activation: NONE, Method: PREINCUBATION); “active; positive” (Test System: AMES SALMONELLA TYPHIMURIUM, Strain/Indicator: TA100, Metabolic Activation: NONE, Method: PREINCUBATION (KCL-CONTAINING OR KCL-FREE MEDIA)); “active; positive” under setting [3]. The mutagenic call is, setting by setting: under setting [4], “inactive; negative”; under setting [5], “active; positive”; (Test System: CHINESE HAMSTER V-79, Strain/Indicator: V-79/6-THIOGUANINE, Metabolic Activation: NONE, Method: STANDARD PLATE) “active; positive”.

For the compound `C=C(C)C(=O)OCCOC(=O)NCCC(C)CC(C)(C)CNC(=O)OCCOC(=O)C(=C)C` (stereo not given), the mutagenic call was “inactive; negative” (Test System: AMES SALMONELLA TYPHIMURIUM, Strain/Indicator: TA97A, Metabolic Activation: NONE, Method: STANDARD PLATE); “inactive; negative” (Test System: AMES SALMONELLA TYPHIMURIUM, Strain/Indicator: TA97A, Metabolic Activation: RAT LIVER S-9, PHENOBARBITAL AND BETA-NAPHTHAFLAVONE, Method: STANDARD PLATE); “inactive; negative” under setting [6]; “inactive; negative” (Test System: AMES SALMONELLA TYPHIMURIUM, Strain/Indicator: TA98, Metabolic Activation: RAT LIVER S-9, PHENOBARBITAL AND BETA-NAPHTHAFLAVONE, Method: STANDARD PLATE); “inactive; negative” under setting [3]; “inactive; negative” (Test System: AMES SALMONELLA TYPHIMURIUM, Strain/Indicator: TA100, Metabolic Activation: RAT LIVER S-9, PHENOBARBITAL AND BETA-NAPHTHAFLAVONE, Method: STANDARD PLATE). For the same compound, the mutagenic call is “inactive; negative” under setting [7]; “inactive; negative” (Test System: AMES SALMONELLA TYPHIMURIUM, Strain/Indicator: TA102, Metabolic Activation: RAT LIVER S-9, PHENOBARBITAL AND BETA-NAPHTHAFLAVONE, Method: STANDARD PLATE); “inactive; negative” (Test System: CHINESE HAMSTER V-79, Strain/Indicator: V79 (HPRT)/6-THIOGUANINE, Metabolic Activation: NONE).

`O=[N+]([O-])c1cccc(OS(=O)(=O)c2cccc3cccnc23)c1`: the mutagenic call was “inactive; negative” under setting [6]; “active; positive” under setting [1]; “inactive; negative” under setting [3]; “active; positive” under setting [4]; “inactive; negative” under setting [8]; “inactive; negative” under setting [9]. The mutagenic call is, setting by setting: under setting [5], “inactive; negative”; under setting [10], “inactive; negative”.

For the compound `Cc1ccc2ccc3ccccc3c2c1C`, the mutagenic call is “inactive; negative” under setting [6], “inactive; negative” under setting [1], “inactive; negative” under setting [3] and “inactive; negative” under setting [4].

On to `Cc1c2c(c(C)c3ccccc13)[C@H]1O[C@H]1c1ccccc1-2`, for which the mutagenic call under setting [2] is “active; positive”.

Turning to `CC(=O)ON(C(C)=O)c1ccc(Oc2ccccc2)cc1`, where the note is “Test System: AMES SALMONELLA TYPHIMURIUM, Strain/Indicator: TA100, Metabolic Activation: GUINEA PIG, LIVER, S-9, KANECLOR 500, Method: STANDARD PLATE”, the mutagenic call is “active; positive”.

As for `O=P(O)(O)OCC(O)CO` (stereo not given), the mutagenic call by setting is: under setting [6], “inactive; negative”; under setting [1], “inactive; negative”; under setting [3], “inactive; negative”; under setting [4], “inactive; negative”; under setting [8], “inactive; negative”; under setting [9], “inactive; negative”. The mutagenic call is, setting by setting: under setting [5], “inactive; negative”; under setting [10], “inactive; negative”; under setting [11], “inactive; negative”; under setting [12], “inactive; negative”; (Test System: E. COLI, Strain/Indicator: WP2, Metabolic Activation: NONE, Method: STANDARD PLATE) “inactive; negative”; (Test System: E. COLI, Strain/Indicator: WP2, Metabolic Activation: RAT, LIVER, S-9, AROCLOR 1254, Method: STANDARD PLATE) “inactive; negative”.

In the case of `C[N+]1(C)CCOCC1`, the mutagenic call is, setting by setting: (Test System: AMES SALMONELLA TYPHIMURIUM, Strain/Indicator: TA97, Metabolic Activation: NONE, Method: STANDARD PLATE) “inactive; negative”; (Test System: AMES SALMONELLA TYPHIMURIUM, Strain/Indicator: TA97, Metabolic Activation: RAT, LIVER, S-9, AROCLOR 1254, Method: STANDARD PLATE) “inactive; negative”; under setting [6], “inactive; negative”; under setting [1], “inactive; negative”; under setting [3], “inactive; negative”; under setting [4], “inactive; negative”. Further, the mutagenic call was “inactive; negative” under setting [7]; “inactive; negative” (Test System: AMES SALMONELLA TYPHIMURIUM, Strain/Indicator: TA102, Metabolic Activation: RAT, LIVER, S-9, AROCLOR 1254, Method: STANDARD PLATE); “inactive; negative” (Test System: AMES SALMONELLA TYPHIMURIUM, Strain/Indicator: TA104, Metabolic Activation: NONE, Method: STANDARD PLATE); “inactive; negative” (Test System: AMES SALMONELLA TYPHIMURIUM, Strain/Indicator: TA104, Metabolic Activation: RAT, LIVER, S-9, AROCLOR 1254, Method: STANDARD PLATE); “inactive; negative” under setting [8]; “inactive; negative” under setting [9]. In addition, the mutagenic call under setting [5] was “inactive; negative”, the mutagenic call under setting [10] is “inactive; negative”, the mutagenic call under setting [11] is “inactive; negative” and the mutagenic call under setting [12] is “inactive; negative”.

For the compound `O.O.O.O.O.O.[Cl-].[Cl-].[Co+2]`, the mutagenic call is “active; positive (structural and ploidy changes)” (End Point: IN VIVO CHROMOSOMAL ABERRATIONS, Test System: BONE MARROW CELLS, Species: MOUSE, Strain/Sex: SWISS ALBINO/MALE, Route: ORAL); “inactive; negative” (Test System: CHINESE HAMSTER V-79, Strain/Indicator: SP5 V-79 (HPRT)/6-THIOGUANINE, Metabolic Activation: NONE, Method: STANDARD PLATE); “active; positive” (Test System: CHINESE HAMSTER V-79, Strain/Indicator: SPD8 V-79 (HPRT)/6-THIOGUANINE, Metabolic Activation: NONE, Method: STANDARD PLATE).
